Measurements reported in patent US8476302B2, “α-ketoamide derivatives useful endothelial lipase inhibitors” (Janssen Pharmaceutica N.V., priority 2010, dated 2013).
pIC50: −log10 of the molar value.

Key:
[1] = biological target: T1, human endothelial lipase (EL) (Homo sapiens, UniProt Q9Y5X9); assay: Endothelial Lipase Assay, cell surface lipase activity (human); assay type: cell-based; conditions: cells expressing human EL, PLA1 substrate 10 μM, fluorescence reaction rate; several values in a cell are repeat determinations
T1 construct: host or cells: cells expressing human endothelial lipase
T1 sequence (Q9Y5X9 21-500): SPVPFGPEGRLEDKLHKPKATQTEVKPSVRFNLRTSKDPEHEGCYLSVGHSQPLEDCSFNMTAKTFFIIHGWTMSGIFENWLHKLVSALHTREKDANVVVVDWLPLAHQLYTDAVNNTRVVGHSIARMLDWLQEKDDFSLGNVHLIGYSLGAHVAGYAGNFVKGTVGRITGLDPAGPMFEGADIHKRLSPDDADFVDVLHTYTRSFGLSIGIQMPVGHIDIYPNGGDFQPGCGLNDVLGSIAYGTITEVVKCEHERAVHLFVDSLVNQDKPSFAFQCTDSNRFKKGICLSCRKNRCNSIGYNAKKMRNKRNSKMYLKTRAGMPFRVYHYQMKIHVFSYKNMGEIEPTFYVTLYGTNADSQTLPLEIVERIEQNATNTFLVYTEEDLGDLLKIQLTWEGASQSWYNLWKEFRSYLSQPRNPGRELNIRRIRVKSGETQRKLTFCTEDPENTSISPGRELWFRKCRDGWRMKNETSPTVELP
How it was run: (§1)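 Cells expressing human or mouse EL, plated 2000 cells/well in serum-free medium for 18-24 h at 37° C, then given PLA1 substrate (10 μM final) in HBSS/25 mM HEPES pH 7.2. Fluorescence (ex 490/em 515 nm) read kinetically for 30 min at 37° C; IC50 from slopes of linear regression over 480-1500 s.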

Mouse EL = biological target: T2, Mouse EL (Mus musculus, UniProt Q9WVG5); assay: Endothelial Lipase Assay, cell surface lipase activity (mouse); assay type: cell-based; conditions: PLA1 substrate 10 μM, fluorescence reaction rate, several values in a cell are repeat determinations
T2 construct: host or cells: not described for mouse EL
T2 sequence (Q9WVG5 21-500): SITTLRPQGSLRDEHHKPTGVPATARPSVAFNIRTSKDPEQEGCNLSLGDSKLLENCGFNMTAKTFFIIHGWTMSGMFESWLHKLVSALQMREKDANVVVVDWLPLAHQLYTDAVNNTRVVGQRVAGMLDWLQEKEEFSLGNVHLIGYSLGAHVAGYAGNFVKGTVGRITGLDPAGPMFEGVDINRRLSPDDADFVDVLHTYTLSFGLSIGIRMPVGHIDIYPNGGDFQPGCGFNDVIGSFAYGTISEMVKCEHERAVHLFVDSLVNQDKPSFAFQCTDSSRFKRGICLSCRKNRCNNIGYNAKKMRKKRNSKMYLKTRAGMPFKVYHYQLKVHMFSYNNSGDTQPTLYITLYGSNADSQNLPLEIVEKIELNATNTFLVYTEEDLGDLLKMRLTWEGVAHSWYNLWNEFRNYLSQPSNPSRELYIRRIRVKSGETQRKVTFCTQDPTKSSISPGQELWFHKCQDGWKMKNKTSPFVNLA
How it was run: as §1

pIC50 [1]	pIC50 (Mouse EL)	Structure (SMILES)
5.26	4.70	O=C(CCCCCOc1c(F)cccc1F)C(=O)NCc1nnc(-c2ccc(OCc3ccccc3)cc2)o1 [Compound 101]
6.29	5.89	CC(=O)Nc1ccc(CCCCCCC(=O)C(=O)NCc2nnc(-c3ccc(OCc4cccc(F)c4)cc3)s2)cn1 [Compound 157]
6.04	6.33	O=C(CCCCCc1ccccc1)C(=O)NCc1nnc(-c2ccc3ccccc3c2)o1 [Compound 34]
6.41	6.75	O=C(CCCCCOc1cc(F)cc(F)c1)C(=O)NCc1nnc(-c2ccc(Oc3ccccc3)cc2)s1 [Compound 133]
6.63	6.81	CN(Cc1ccccn1)c1ccc(-c2nnc(CNC(=O)C(=O)CCCCCCc3ccccc3)o2)cc1 [Compound 111]
5.84	6.15	O=C(CCCCCCc1ccccc1)C(=O)NCc1nnc(-c2ccc(Oc3ncccn3)cc2)o1 [Compound 87]
7.43	7.77	O=C(CCCCCCc1ccccc1)C(=O)NCc1nnc(-c2ccc(OCc3ccnc(Cl)c3)cc2)s1 [Compound 173]
5.95	6.00	Cc1ccc(-c2nnc(CNC(=O)C(=O)CCCCCc3ccccc3)o2)cc1 [Compound 35]
4.94	4.95	CN(c1ccc(Br)cc1)c1ccc(-c2nnc(CNC(=O)C(=O)CCCCCCc3ccccc3)o2)cc1 [Compound 75]
4.48	4.48	O=C(CCCCCCc1ccccc1)C(=O)NCc1nnc(-c2ccc(OCc3ccc(Cl)cc3)cc2)o1 [Compound 77]
6.38	6.60	N#Cc1cccc(COc2ccc(-c3nnc(CNC(=O)C(=O)CCCCCCc4ccccc4)s3)cc2)c1 [Compound 144]
6.13	5.99	O=C(CCCCCCc1ccccc1)C(=O)NCc1nnc(-c2ccc(F)cc2)o1 [Compound 15]
6.95	7.10	O=C(CCCCCCc1ccccc1)C(=O)NCc1nnc(-c2ccc(Oc3ccccc3)cc2)s1 [Compound 130]
6.59	6.44	O=C(CCCCCCc1ccccc1)C(=O)NCc1nnc(-c2ccc(Oc3cccc(Cl)c3)cc2)o1 [Compound 66]
6.02	6.11	Cn1ccnc1COc1ccc(-c2nnc(CNC(=O)C(=O)CCCCCCc3ccccc3)o2)cc1 [Compound 78]
7.32	7.32	O=C(CCCCCCc1ccc(F)nc1)C(=O)NCc1nnc(-c2ccc(OCc3cccc(F)c3)cc2)s1 [Compound 165]
6.65	6.77	O=C(CCCCCCc1ccccc1)C(=O)NCc1nnc(-c2ccc(OCc3ccccc3F)cc2)o1 [Compound 85]
5.28	5.56	O=C(CCCCCOc1cccc(F)c1)C(=O)NCc1nnc(-c2ccc3c(c2)Oc2ccccc2O3)o1 [Compound 62]
5.98	6.25	O=C(CCCCCOc1cc(F)cc(F)c1)C(=O)NCc1nnc(-c2ccc(Oc3ccccc3)cc2)o1 [Compound 95]
4.91	4.83	O=C(CCCCCNc1ncccn1)C(=O)NCc1nnc(-c2ccccc2)o1 [Compound 148]
5.62	5.58	O=C(CCCCC#Cc1ccccc1)C(=O)NCc1nnc(-c2ccccc2)o1 [Compound 43]
6.18	6.36	O=C(CCCCCCc1ccccc1)C(=O)NCc1nnc(-c2cc(F)cc(F)c2)o1 [Compound 26]
6.31	6.21	O=C(CCCCCCc1ccccc1)C(=O)NCc1nnc(-c2ccc(Cl)cc2)o1 [Compound 2]
6.22	6.10	O=C(CCCCCCc1ccccc1F)C(=O)NCc1nnc(-c2ccccc2)o1 [Compound 51]
4.96	5.00	COc1cccc(OCCCCCC(=O)C(=O)NCc2nnc(-c3cccc(Oc4ccccc4)c3)o2)c1 [Compound 64]
